Tests used:
T-cell clones of 135TIL = experiment: IFN-γ ELISA with tumor-reactive T-cell clones of 135TIL; format: cell-based, human
From the text: Thus, immunogenic antigens can be generated from various sources or mechanisms [such as alternative ORFs, noncoding regions (3′ and 5′ UTRs, introns, noncoding RNA)]. […] All other tumor-reactive CD4^+ T-cell clones and CD8^+ T-cell clones recognized the mutation-derived neoantigens. […] To identify these two antigens recognized by these two CD4^+ T-cell clones, an Ii-fusion cDNA library derived from 135 mel tumor cells was constructed using experimental procedures. The Ii-fusion cDNA library pools (approximately 100 cDNA clones per pool) were transfected into 293IMDR3/DP4 or 293IMDR4/DP4 cells, followed by co-culturing with CD4^+ T-cell clones (135-1C1 or 135-1E1). After 2×10^5 cDNA clones, positive cDNA library pools that stimulate two T-cell clones, respectively, were identified based on IFN-γ release by ELISA (FIG. 6B). The positive pools were then transformed into Stbl3™ Escherichia coli, and single bacteria colonies were picked for plasmid DNA isolation. The screening assays were repeated in the same APCs transfected with the single cDNA-containing plasmids, and identified three clones that were able to stimulate 135-1C1 T cells, and two clones that reacted with 135-1E1 T cells (FIG. 6C). […] The 135-1E1 T cell-reactive cDNA clones encoded the product translated from an alternative reading frame of CTAG2 (LAGE1b) (FIG. 6C and FIG. 7A). […] LAGE1 is a cancer-testis antigen, with over 80% amino acid sequence identical to NY-ESO-1 protein, which is the most immunogenic tumor antigen identified to date. To define the T cell epitopes, wee generated a series of deletions and truncations of 3′ UTR region of ADIPOR2 gene, and narrowed down T cell epitope to a 26 aa peptide-coding sequence that stimulate 135-1C1 T cell response (FIG. 7D). Using similar approach, T cell epitopes were narrowed down to a 69 aa peptide-coding sequence of the LAGE1b alternative ORF2 for 135-1E1 T-cell recognition (FIG. 7E).
Using systemic and multiple approaches, 8 cancer neoantigens were identified in 135 mel and 7 neoantigens in 136 mel. To understand the potential mechanisms that restrain the number of neoantigens that could induce T cell response, it was asked whether these neoantigens were equally recognized by T cells.
T-cell cloning and expansion were performed. Briefly, T-cell clones from 135TILs were generated by a limited dilution (0.3 cell/well) in 96-well plates. Allogeneic PBMCs from normal donors were irradiated (60 Gy) and then seeded as feeder cells (7×10^4/well) in TCM containing 35 ng/ml OKT3 (anti-hCD3 antibody) (R&D Systems) and 35 ng/ml anti-hCD28 antibody (R&D Systems). On day 1, recombinant IL-2 was added to the final concentration of 300 IU/ml. On day 5, half of the culture medium was replaced with fresh TCM containing recombinant IL-2, and then the medium was changed every other day or when the medium color turned yellow. On day 14, T-cell clones were harvested, counted, tested for tumor reactivity. Tumor reactive T-cell clones were further expanded.
(§1) 96-well tissue culture plates were coated with phosphate-buffered saline (PBS, GenDEPOT) containing 50 μg/ml poly-L-lysine (Millipore Sigma) at 37° C. 10 min later, the plates were rinsed twice with PBS. Tumor cells or 293-APCs were seeded at 5×10^4/well in the 96-well plate and cultured at 37° C., 5% CO2 for at least 4 h. For plasmid transfection, 250 ng of plasmid DNA were transfected into 293-APCs per well with 0.5 μl of Lipofectamine 2000 (Thermo Fisher Scientific) according to the manufacturer's instructions and incubated at 37° C., in 5% CO2 overnight. For peptide presentation, synthesized peptides (GeneScript) were added to each well at different final concentrations from 10^2 to 10^−4 μM and incubated at 37° C., 5% CO2. The cells transfected with plasmids or pulsed with peptides were washed with TCM twice, and then cocultured with T cells (1×10^5/well). After overnight culture, 50 μl of supernatant was collected for measuring cytokine release with an ELISA assay. […]

135TIL [1] = experiment: IFN-γ ELISA with bulk 135TIL (IVT-RNA electroporated 135EBV-B cells; peptide titration and truncation); format: cell-based, human; details: serially diluted peptides
Experimental: Due to low transfection efficiency of EBV-B cells, in vitro transcribed (IVT) RNA of 24 TMGs were generated and then electroporated them into 135EBV-B cells, followed by adding 135TIL cells for antigen recognition based on cytokine release assay.
as §1, with “(1×10^5/well).” for “(1×10^5/well). After overnight culture, 50 μl of supernatant was collected for measuring cytokine release with an ELISA assay.”
96-well microplate (Greiner Bio-one) was coated with 50 μl of PBS containing anti-human IFN-γ (Thermo Fisher Scientific, primary antibody, 1 μg/ml) per well and incubated at 4° C. overnight. […] The plate was read at OD450 nm. The concentration of IFN-γ was calculated by standard reading. […]

135TIL [2] = experiment: Intracellular staining of IFN-γ after neoantigen peptide stimulation, 135TIL; format: cell-based, human
Experimental: T cells were stimulated by various in vitro methods, such as tumor cells, peptides or DNA encoding neoantigens, etc. and induced to release cytokines. Stimulated T cells were resuspended in 100 μl of Cytofix/Cytoperm solution (BD Biosciences) per well for microwell plates (or 250 μl for tubes) and incubated for 20 min at 4° C. for cell fixation. Fixed cells were permeabilized by washing twice in 1× Perm/Wash buffer (BD Biosciences). Then the fixed/permeabilized cells were thoroughly resuspended in 50 μl of 1× Perm/Wash buffer containing 1 μl of phycoerythrin (PE)-conjugated IFN-γ antibody (Thermo Fisher Scientific) and incubate at 4° C. for 30 min in the dark. After that the cells were washed twice with 1× Perm/Wash buffer and ready for flow cytometric analysis.

135TIL [3] = experiment: TCR β CDR3 repertoire analysis; set-up: species or system human; details: TCRβ CDR3 profiling
From the text: To address this issue, PCDHB16 neoantigen-specific CD4^+ T cells were isolated by FACS sorting of PCDHB16-neoantigen T cells from freshly generated bulk T cells after stimulated PCDHB16 neoepitope peptide-pulsed 135EBV-B cells. Using the similar approach, MPG-specific CD8+ T cells were also purified from freshly generated bulk T cells after stimulated MPG neoepitope peptide-pulsed 135EBV-B cells. Genomic DNAs were isolated from the two purified neoantigen-specific T cell populations, as well as the parental bulk T cells, and used as templates for TCR β-chain CDR3 repertoire amplification. […] After the amplicons (from PCDHB16-, MPG-specific T cells and bulk 135TIL) were subjected to deep-sequenced via next-generation sequencing (reads>100,000 per sample), followed by bioinformatic analysis and TCR repertoire alignment. […] The relative TCR sequence frequencies that were identical to those in PCDHB16-specific T cells and MPG-specific T cells were determined in total 135TIL cell population (FIG. 10F). […]
Cytokine Secretion Assay-Detection Kit (MACS Miltenyi Biotec) was used in cell-surface IFN-γ staining based on a commercial protocol. […] Finally cells were washed with cold buffer and ready for flow cytometric analysis. […]

Row | Sequence | recognition of antigen peptides by specific T-cell clones (T-cell clones of 135TIL; peptide titration, 135-1C1 (ADIPOR2), 135-1E1 (LAGE1b)) | recognition of titrated peptides by 135TIL (IFN-γ ELISA) (135TIL [1]) | percentage of CD8^+ tumor-reactive T-cell clones recognizing the neoantigen (T-cell clones of 135TIL; 40 clones) [%] | number of CD8^+ tumor-reactive T-cell clones recognizing the neoantigen (T-cell clones of 135TIL; of 40 clones) | share of tumor-reactive CD8^+ T cells specific for the neoantigen (135TIL [2]) [%] | CD8^+ T cells recognizing the neoantigen in the total T cell population (135TIL [2]; intracellular cytokine staining) [%] | neoantigen-specific TCRs in the total 135TIL TCRs (135TIL [3]) [%]
1 | MKLTSLMCNPVKSPFFGCVCGHVPISMCVSTCSSLPTASCALDLTVLAENSHQVGA [ADIPOR2, 56 aa reading frame in the 3′UTR of gene ADIPOR2] | strongly recognized | little or no activity | – | – | – | – | –
2 | YGMYFCMNISSQEDGACVLLRALEP [MPG, immunodominant MHC-I neoantigen of patient #135] | – | – | 67.5 | 27 | 65 | 12.3 | 25.5
